According to ChEMBL document CHEMBL1131345, “Synthesis of N-(1-ethyl-4-methylhexahydro-1,4-diazepin-6-yl)nicotinamides and their affinities for 5-HT3 and dopamine D2 receptors” (Bioorg Med Chem Lett, 1998):

Assays:
[1] = molecular target: T1, Serotonin 3 (5-HT3) receptor (Rattus norvegicus, UniProt P35563+Q9JJ16); experiment: Inhibition of [3H]GR-65630 binding to rat cortical membrane 5-hydroxytryptamine 3 receptor
T1 sequence (P35563 whole entry): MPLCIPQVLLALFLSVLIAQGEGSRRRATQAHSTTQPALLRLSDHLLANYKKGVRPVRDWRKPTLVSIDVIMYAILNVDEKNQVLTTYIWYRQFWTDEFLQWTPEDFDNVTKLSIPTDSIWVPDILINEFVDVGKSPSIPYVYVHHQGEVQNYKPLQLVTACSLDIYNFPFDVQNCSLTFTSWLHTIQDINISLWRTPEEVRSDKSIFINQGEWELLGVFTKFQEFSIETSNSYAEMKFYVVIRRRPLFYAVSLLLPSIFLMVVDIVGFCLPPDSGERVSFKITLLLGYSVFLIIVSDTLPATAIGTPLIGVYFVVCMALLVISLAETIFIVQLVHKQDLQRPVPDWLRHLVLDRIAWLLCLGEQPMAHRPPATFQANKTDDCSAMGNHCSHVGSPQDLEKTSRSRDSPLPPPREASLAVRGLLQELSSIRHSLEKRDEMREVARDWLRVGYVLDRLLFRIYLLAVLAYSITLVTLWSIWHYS
T1 sequence (Q9JJ16 whole entry): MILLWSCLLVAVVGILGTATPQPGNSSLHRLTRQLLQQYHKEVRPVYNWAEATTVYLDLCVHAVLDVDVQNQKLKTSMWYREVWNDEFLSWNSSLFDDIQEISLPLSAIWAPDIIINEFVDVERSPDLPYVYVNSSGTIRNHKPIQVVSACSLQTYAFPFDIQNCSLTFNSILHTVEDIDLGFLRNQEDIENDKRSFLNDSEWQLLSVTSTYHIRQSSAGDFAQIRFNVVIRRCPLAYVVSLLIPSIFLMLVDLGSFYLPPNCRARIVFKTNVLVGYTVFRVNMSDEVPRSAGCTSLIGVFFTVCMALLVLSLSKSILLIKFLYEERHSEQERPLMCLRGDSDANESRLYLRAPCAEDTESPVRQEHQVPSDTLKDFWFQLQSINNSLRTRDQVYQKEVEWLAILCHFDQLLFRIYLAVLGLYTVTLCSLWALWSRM

D(2) dopamine receptor = D(2) dopamine receptor (Rattus norvegicus, UniProt P61169); experiment: Inhibition of [3H]- spiperone binding to rat brain Dopamine receptor D2
D(2) dopamine receptor, sequence (P61169 whole entry): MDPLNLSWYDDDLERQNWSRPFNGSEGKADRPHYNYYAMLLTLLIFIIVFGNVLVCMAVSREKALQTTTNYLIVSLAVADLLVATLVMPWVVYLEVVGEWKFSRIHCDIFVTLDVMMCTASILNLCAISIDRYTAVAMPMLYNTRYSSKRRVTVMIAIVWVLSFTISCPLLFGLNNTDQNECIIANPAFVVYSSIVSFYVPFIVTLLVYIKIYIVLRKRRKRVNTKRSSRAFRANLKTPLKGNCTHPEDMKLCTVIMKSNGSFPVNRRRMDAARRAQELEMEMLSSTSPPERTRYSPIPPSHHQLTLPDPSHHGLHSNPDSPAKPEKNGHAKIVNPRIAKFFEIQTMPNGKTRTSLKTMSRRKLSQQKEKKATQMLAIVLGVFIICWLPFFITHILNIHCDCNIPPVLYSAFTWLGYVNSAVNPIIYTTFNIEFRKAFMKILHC

| Structure (SMILES) | IC50 [1] [µM] | IC50 (D(2) dopamine receptor) [µM] |
| --- | --- | --- |
| CCNc1nc(OC)c(C(=O)NC2CN(C)CCN(CC)C2)cc1Br (stereo not drawn) | 0.0038 | 0.048 |
| CCN1CCN(C)CC(NC(=O)c2cc(Cl)c(N)nc2OC)C1 (stereo not drawn) | 0.0051 | 0.386 |
| CCN1CCN(C)CC(NC(=O)c2cc(Br)c(N(C)C)nc2OC)C1 (stereo not drawn) | 0.0099 | 0.075 |
| CCN1CCN(C)C[C@@H](NC(=O)c2cc(Cl)c(NC)cc2OC)C1 | 0.0029 | 0.035 |
| CCN(CC)CCNC(=O)c1cc(Cl)c(N)cc1OC [METOCLOPRAMIDE] | 0.88 |  |

The next compounds have a lower IC50 [1] than those just listed; values first:

| IC50 [1] [µM] | IC50 (D(2) dopamine receptor) [µM] | Structure (SMILES) |
| --- | --- | --- |
| 0.0021 | 0.202 | CCN1CCN(C)C[C@H](NC(=O)c2cc(Cl)c(NC)nc2OC)C1 |
| 0.002 | 0.076 | CCNc1nc(OC)c(C(=O)NC2CN(C)CCN(CC)C2)cc1Cl (stereo not drawn) |
| 0.0016 | 0.018 | CCN1CCN(C)C[C@@H](NC(=O)c2cc(Cl)c(NC)nc2OC)C1 |
| 0.0013 | 0.043 | CCN1CCN(C)CC(NC(=O)c2cc(Cl)c(NC)nc2OC)C1 (stereo not drawn) |
| 0.0012 | 0.081 | CCN1CCN(C)C[C@H](NC(=O)c2cc(Br)c(NC)nc2OC)C1 |
| 0.0011 | 0.012 | CCN1CCN(C)C[C@@H](NC(=O)c2cc(Br)c(NC)nc2OC)C1 |
| 0.001 | 0.023 | CCN1CCN(C)CC(NC(=O)c2cc(Br)c(NC)nc2OC)C1 (stereo not drawn) |
